Measurements as given in patent publication US8314250B2, “Sultam derivatives” (Hoffmann-La Roche Inc., priority 2009, dated 2012).
Structures can show the parent of a compound that is named as a salt.

These molecules were tested on HeLa cells (assay: CellTiter-Glo luminescent cell viability (cytotoxicity) assay). Conditions: 10 μM test compound, 48 hours, inhibition of luminescence compared to control cells, 10 µM.
Assay type: cell-based
Experimental: Cytotoxicity was assessed using Promega's CellTiter-Glo® luminescent cell viability assay (Promega Corporation, Madison, Wis., USA) as described in Promega Technical Bulletin TB288, revised August 2008. The assay was performed in HeLa cells at a maximum concentration tested of 10 μM of test compound. This assay measures the amount of adenosine triphosphate (ATP) present as a way of quantifying the presence and degree of metabolic activity in cell cultures.
Viable Hela cells were plated at a density of 3000 cells/well in 96 wells in black, clear bottom plates. Cells were allowed to attach to the plate by incubating overnight at 37° C. Test compounds were diluted in DMSO then further diluted in 10% FBS media. Media was removed from the cell plates and 50 μL of the solution was added to each well manually with the exception of the control well, which contained the same volume of 10% FBS media which includes 1% DMSO. Cells were incubated in the presence of compound undisturbed for 48 hours at 37° C. After the 48 hour compound exposure, 50 μL of the pCellTiter Glo® reagent was added. The cell plates were agitated on a shaker for 2 minutes to help lyse the cells. The plate was covered and read for luminescence.
Percent inhibition was calculated as follows: PCT_INHIB=100*[(U−T)/U] Where U represents the Luminescence of wells containing untreated cells and
T represents the Luminescence of wells containing compound-treated cells

Q: With COc1ccc(Cl)c(CN(Cc2cccc(CN3C(C(=O)NC45CC6CC(CC(C6)C4)C5)CCS3(=O)=O)c2)[C@H](CN(C)C)CC(C)(C)C)c1F (single isomer, unassigned; epimer 1) [Example 33] as the molecule, how does the “Activity (PCT_INHIB @ 10 μM)” value read?
A: 96%

Q: With COc1ccc(Cl)c(CN(Cc2cccc(CN3C(C(=O)NC45CC6CC(CC(C6)C4)C5)CCS3(=O)=O)c2)[C@H](CN(C)C)CC(C)(C)C)c1F (single isomer, unassigned; epimer 2) [Example 34] as the molecule, how does the “Activity (PCT_INHIB @ 10 μM)” value read?
A: 97%

Same assay, conditions: Homo sapiens, HeLa, 48 h, 10 μM test compound, inhibition of luminescence compared to control cells, read-out: Activity (PCT_INHIB @ 10 μM)

Q: For C[C@@H]1[C@@H](NC(=O)C2CCS(=O)(=O)N2Cc2cccc(CN(Cc3cc(Cl)ccc3O)[C@H](CN(C)C)CC(C)(C)C)c2)C[C@H]2C[C@@H]1C2(C)C (stereo partly drawn) [Example 1, 2-(3-{[(5-Chloro-2-hydroxy-benzyl)-((S)-1-dimethylaminomethyl-3,3-dimethyl-butyl)-amino]-methyl}-benzyl)-1,1-dioxo-1λ^6-isothiazolidine-3-carboxylic acid((1S,2S,3S,5R)-2,6,6-trimethyl-bicyclo[3.1.1]hept-3-yl)-amide], which inhibition at 10 µM is on record?
A: 96%

Q: For C[C@@H]1[C@@H](NC(=O)C2CCS(=O)(=O)N2Cc2cccc(CN(Cc3ccccc3I)[C@H](CN(C)C)CC(C)(C)C)c2)C[C@H]2C[C@@H]1C2(C)C (stereo partly drawn) [Example 2, 2-(3-{[((S)-1-Dimethylaminomethyl-3,3-dimethyl-butyl)-(2-iodo-benzyl)-amino]-methyl}-benzyl)-1,1-dioxo-1λ^6-isothiazolidine-3-carboxylic acid((1S,2S,3S,5R)-2,6,6-trimethyl-bicyclo[3.1.1]hept-3-yl)-amide trifluoroacetate salt], which inhibition at 10 µM is on record?
A: 50%

Q: Which inhibition at 10 µM does the source give for CCOc1ccccc1CN(Cc1cccc(CN2C(C(=O)N[C@H]3C[C@H]4C[C@@H]([C@@H]3C)C4(C)C)CCS2(=O)=O)c1)[C@H](CN(C)C)CC(C)(C)C (stereo partly drawn) [Example 3, 2-(3-{[((S)-1-Dimethylaminomethyl-3,3-dimethyl-butyl)-(2-ethoxy-benzyl)-amino]methyl}-benzyl)-1,1-dioxo-1λ^6-isothiazolidine-3-carboxylic acid((1S,2S,3S,5R)-2,6,6-trimethyl-bicyclo[3.1.1]hept-3-yl)-amide trifluoroacetate salt] here?
A: 69%

Q: With COc1ccc(C(C)C)cc1CN(Cc1cccc(CN2C(C(=O)N[C@H]3C[C@H]4C[C@@H]([C@@H]3C)C4(C)C)CCS2(=O)=O)c1)[C@H](CN(C)C)CC(C)(C)C (stereo partly drawn) [Example 4, 2-(3-{[((S)-1-Dimethylaminomethyl-3,3-dimethyl-butyl)-(5-isopropyl-2-methoxy-benzyl)-amino]-methyl}-benzyl)-1,1-1λ^6-isothiazolidine-3-carboxylic acid((1S,2S,3S,5R)-2,6,6-trimethyl-bicyclo[3.1.1]hept-3-yl)-amide trifluoroacetate salt] as the molecule, how does the inhibition at 10 µM read?
A: 96%

Q: Which inhibition at 10 µM does the source give for C[C@@H]1[C@@H](NC(=O)C2CCS(=O)(=O)N2Cc2cccc(CN(Cc3ccccc3OC(F)F)[C@H](CN(C)C)CC(C)(C)C)c2)C[C@H]2C[C@@H]1C2(C)C (stereo partly drawn) [Example 5, 2-(3-{[(2-Difluoromethoxy-benzyl)-((S)-1-dimethylaminomethyl-3,3-dimethyl-butyl)amino]-methyl}-benzyl)-1,1-dioxo-1λ^6-isothiazolidine-3-carboxylic acid((1S,2S,3S,5R)-2,6,6-trimethyl-bicyclo[3.1.1]hept-3-yl)-amide trifluoroacetate salt] here?
A: 87%

Q: With C[C@@H]1[C@@H](NC(=O)C2CCS(=O)(=O)N2Cc2cccc(CN(Cc3ccccc3Oc3ccc(F)cc3)[C@H](CN(C)C)CC(C)(C)C)c2)C[C@H]2C[C@@H]1C2(C)C (stereo partly drawn) [Example 6, 2-[3-({((S)-1-Dimethylaminomethyl-3,3-dimethyl-butyl)-[2-(4-fluoro-phenoxy)-benzyl]-amino}-methyl)-benzyl]-1,1-dioxo-1λ^6-isothiazolidine-3-carboxylic acid((1S,2S,3S,5R)-2,6,6-trimethyl-bicyclo[3.1.1]hept-3-yl)-amide trifluoroacetate salt] as the molecule, how does the inhibition at 10 µM read?
A: 82%

Q: Cc1ccc(Oc2ccccc2CN(Cc2cccc(CN3C(C(=O)N[C@H]4C[C@H]5C[C@@H]([C@@H]4C)C5(C)C)CCS3(=O)=O)c2)[C@H](CN(C)C)CC(C)(C)C)cc1 (stereo partly drawn) [Example 7, 2-(3-{[((S)-1-Dimethylaminomethyl-3,3-dimethyl-butyl)-(2-p-tolyloxy-benzyl)-amino]-methyl}-benzyl)-1,1-dioxo-1λ^6-isothiazolidine-3-carboxylic acid((1S,2S,3S,5R)-2,6,6-trimethyl-bicyclo[3.1.1]hept-3-yl)-amide trifluoroacetate salt] was tested. Which inhibition at 10 µM did it give?
A: 58%

Q: C[C@@H]1[C@@H](NC(=O)C2CCS(=O)(=O)N2Cc2cccc(CN(Cc3ccccc3-c3ccc(F)cc3)[C@H](CN(C)C)CC(C)(C)C)c2)C[C@H]2C[C@@H]1C2(C)C (stereo partly drawn) [Example 8, 2-(3-{[((S)-1-Dimethylaminomethyl-3,3-dimethyl-butyl)-(4′-fluoro-biphenyl-2 ylmethyl)-amino]-methyl}-benzyl)-1,1-dioxo-1λ^6-isothiazolidine-3-carboxylic acid((1S,2S,3S,5R)-2,6,6-trimethyl-bicyclo[3.1.1]hept-3-yl)-amide trifluoroacetate salt] was tested. Which inhibition at 10 µM did it give?
A: 97%

Q: Which inhibition at 10 µM does the source give for Cc1ccc(CN(Cc2cccc(CN3C(C(=O)N[C@H]4C[C@H]5C[C@@H]([C@@H]4C)C5(C)C)CCS3(=O)=O)c2)[C@H](CN(C)C)CC(C)(C)C)c(O)c1 (stereo partly drawn) [Example 9, 2-(3-{[((S)-1-Dimethylaminomethyl-3,3-dimethyl-butyl)-(2-hydroxy-4-methylbenzyl)-amino]-methyl}-benzyl)-1,1-dioxo-1λ^6-isothiazolidine-3-carboxylic acid((1S,2S,3S,5R)-2,6,6-trimethyl-bicyclo[3.1.1]hept-3-yl)-amide trifluoroacetate salt] here?
A: 96%

Q: How did the inhibition at 10 µM turn out when Cc1ccc(O)c(CN(Cc2cccc(CN3C(C(=O)N[C@H]4C[C@H]5C[C@@H]([C@@H]4C)C5(C)C)CCS3(=O)=O)c2)[C@H](CN(C)C)CC(C)(C)C)c1 (stereo partly drawn) [Example 10, 2-(3-{[((S)-1-Dimethylaminomethyl-3,3-dimethyl-butyl)-(2-hydroxy-5-methyl-benzyl)-amino]-methyl}-benzyl)-1,1-dioxo-1λ^6-isothiazolidine-3-carboxylic acid((1S,2S,3S,5R)-2,6,6-trimethyl-bicyclo[3.1.1]hept-3-yl)-amide trifluoroacetate salt] was run?
A: 96%

Q: Cc1ccccc1-c1ccccc1CN(Cc1cccc(CN2C(C(=O)N[C@H]3C[C@H]4C[C@@H]([C@@H]3C)C4(C)C)CCS2(=O)=O)c1)[C@H](CN(C)C)CC(C)(C)C (stereo partly drawn) [Example 11, 2-(3-{[((S)-1-Dimethylaminomethyl-3,3-dimethyl-butyl)-(2′-methyl-biphenyl-2 ylmethyl)-amino]-methyl}-benzyl)-1,1-dioxo-1λ^6-isothiazolidine-3-carboxylic acid((1S,2S,3S,5R)-2,6,6-trimethyl-bicyclo[3.1.1]hept-3-yl)-amide trifluoroacetate salt] was tested. Which inhibition at 10 µM did it give?
A: 97%

Q: For C[C@@H]1[C@@H](NC(=O)C2CCS(=O)(=O)N2Cc2cccc(CN(Cc3c(F)cccc3Oc3ccccc3)[C@H](CN(C)C)CC(C)(C)C)c2)C[C@H]2C[C@@H]1C2(C)C (stereo partly drawn) [Example 12, 2-(3-{[((S)-1-Dimethylaminomethyl-3,3-dimethyl-butyl)-(2-fluoro-6-phenoxy-benzyl)-amino]-methyl}-benzyl)-1,1-dioxo-1λ^6-isothiazolidine-3-carboxylic acid((1S,2S,3S,5R)-2,6,6-trimethyl-bicyclo[3.1.1]hept-3-yl)-amide trifluoroacetate salt], which inhibition at 10 µM is on record?
A: 96%
